Source: patent US20200138764A1, “METHODS AND DEVICES FOR ACTIVATING ADIPOSE TISSUE” (The Procter & Gamble Company, priority 2018, published 2020)

Assays:
[1] = test system: Human subcutaneous pre-adipocytes; test: Lipogenesis Assay (AdipoRed staining); assay type: cell-based; settings: AdipoRed fluorescence, NI = no inhibition at concentration less than/equal to 1 mM
Method: Lipogenesis is the process by which acetyl-CoA is converted to fatty acid. Through lipogenesis and subsequent triglyceride synthesis, energy can be stored in the form of adipose tissue (i.e. fats). To determine what effect, if any, activating compounds (shown in TABLE 1) had on lipogenesis, the protocol listed below was used.
To determine whether the activating compounds (shown in TABLE 1) impacted the formation of white adipocytes from pre-adipocytes, a lipogenesis assay was performed. The cells utilized in the protocol were cryo-preserved Human subcutaneous pre-adipocytes superlot (Zen-Bio, Inc., Research Triangle Park, N.C., Cat # SP-F-SL). The growth media used was PM-1 (Zen-Bio, Inc., Research Triangle Park, N.C., cat # PM-1) plus 5 ng/mL Epidermal Growth Factor (EGF). The PM-1+5 ng/mL EGF was prepared by adding 12.5 uL of 200 ug/mL EGF stock to 500 mL PM-1. The differentiation media used was DM-2 (Zen-Bio, Inc., Research Triangle Park, N.C., cat # DM-2). The adipocyte maintenance media used was AM-1 (Zen-Bio, Inc., Research Triangle Park, N.C., cat # AM-1).
First, the human subcutaneous pre-adipocyte cells were thawed in a 37° C. water bath. Next, the thawed pre-adipocyte cells were added to 9 mL of growth medium (PM-1) at 20° C. in a 15 mL polypropylene tube (Bioexpress, Corning, Corning, N.Y.). The tube was centrifuged at 280×g (˜1100 rpm) at 20° C. for 5 min. After 5 min, the supernatant was removed and the accumulated solids were re-suspended in 2 mL of PM-1 using trituration. The suspension of cells was counted under 100× magnification using a Cyto C-Chip hemacytometer (Incyto, Seoul, South Korea, cat # DHC-N01-5). In order to proceed, 15-50 cells per 1×1 mm square in hemacytometer was needed. If, the number of cells per square was not met, 6.7×10^5 (670,000) cells per T75 flask (Bioexpress, Corning, Corning, N.Y.) were added to each square and the suspension was diluted to 20 mL with PM-1. Every other day, new media was added to replace media removed due to metabolism by the cells. The cells were re-counted as described previously. Cells were grown to 80-90% confluence, which took approximately 4-5 days. 80-90% confluence is determined by visual inspection of the area of the flask occupied by the cells. When 80-90% of the flask area has been occupied, cells are at 80-90% confluence. Cell colonies were then split 1:6 by harvesting from a single flask and equally dividing the harvested cells into six flasks. Colonies were not allowed to exceed 3 passages and were not grown to complete confluence. The pre-adipocytes were grown until they contact with other cells in the flask to aid differentiation into white or brown adipocytes.
After the pre-adipocytes were sufficiently grown to 90% confluence, the cells were ready for differentiation and treatment with an activating compound. Cells were washed with 3 mL of PBS and detached using 3 mL of Trypsin EDTA. The cells were incubated at 37° C. for 5 minutes. Next, the cells were centrifuged at 280×g at 20° C. for 5 minutes. The supernatant was discarded and the resulting pellet was re-suspended in 10 mL of PM-1 using trituration. Cells were counted at 100× magnification and the cells were diluted to 86,667 cells/mL (˜13,000 cells/150 μL) by adding the necessary amount of PM-1 to achieve the desired concentration. Upon addition of PM-1, samples were swirled by hand to evenly disperse the cells prior to plating.
Once confluence is reached, 150 μL of differentiation media (DM-2) was added (DAY 0). Samples were incubated at 37° C. for 6 days. On DAY 6, 90 μL of media was removed from each sample via aspiration, without touching the bottom of the well. Next, 140 μL of adipocyte maintenance medium (AM-1) was added. The AM-1 ran down the side of well. On DAY 6, activating compounds were added (2 μL of 10 mM activating compound) to give a final concentration of 100 μM of activating compounds. […]

adipocytes = test: Real Time PCR analysis of adipocytes, in vitro; assay type: cell-based, human; settings: Real Time PCR, relative to untreated control = 1
Method: For Real Time PCR analysis of adipocytes, cells from cultures grown in 24 well plates were collected. RNA was isolated using RNeasy Kit (Cat 74104, Qiagen, Germantown, Md.) using manufacturer's protocol. RNA was quantitated using the Nanodrop 1000 (Thermofisher, Waltham, Mass.). cDNA formation was carried out using PowerUp SYBR™ Green Master Mix and real time PCR carried out on QuantStudio 6 machine (ThermoFisher, Waltham, Mass.) per manufacturer protocol. ΔΔCT analysis was done using the Expression Suite software (ThermoFisher) purchased with the instrument.
TABLE 2 used Real Time PCR to determine which proteins were expressed in adipocytes upon treatment with activating compounds. […] Real Time PCR values were relative to a control sample that was not treated with any activating compounds. […] In WS-5 and Menthol, no Real Time PCR value was over 2.0, which indicated only slight changes in mRNA expression.

For CC(C)[C@@H]1CC[C@@H](C)C[C@H]1C(=O)NC[C@@H](NC(=O)[C@H](C)N)c1ccccc1 [Formula III], which IC50 ([1]; Homo sapiens) is on record?
The IC50 was 25 µM.

What about the “Relative Expression of mRNA in Adipocytes: 18S” value (adipocytes) of the same molecule?
The value was 1.

What about the “Relative Expression of mRNA in Adipocytes: ACADM” value (adipocytes) of the same molecule?
The value was 1.75.

And the “Relative Expression of mRNA in Adipocytes: CPT1A” value (adipocytes)?
The value was 1.7.

And the “Relative Expression of mRNA in Adipocytes: FASN” value (adipocytes)?
Its value is 1.85.

And the “Relative Expression of mRNA in Adipocytes: GAPDH” value (adipocytes)?
Its value is 1.

And the “Relative Expression of mRNA in Adipocytes: PPARGC1A” value (adipocytes)?
Its value is 0.8.

And the “Relative Expression of mRNA in Adipocytes: PRDM16” value (adipocytes)?
The value was 0.6.

What does the source list for CC1CCC(C(C)C)C(O)C1 (stereo not shown) [Menthol]?
Lipogenesis IC50 [1]: no inhibition; IC50 ([1]; Homo sapiens): > 1000 µM; Relative Expression of mRNA in Adipocytes: 18S (adipocytes): 1; Relative Expression of mRNA in Adipocytes: ACADM (adipocytes): 1.45; Relative Expression of mRNA in Adipocytes: CPT1A (adipocytes): 1.35; Relative Expression of mRNA in Adipocytes: FASN (adipocytes): 1.45; Relative Expression of mRNA in Adipocytes: GAPDH (adipocytes): 1; Relative Expression of mRNA in Adipocytes: PPARGC1A (adipocytes): 2.0; Relative Expression of mRNA in Adipocytes: PRDM16 (adipocytes): 0.75; Relative Expression of mRNA in Adipocytes: UCP-1 (adipocytes): 1.7

What does the source list for CCOC(=O)CNC(=O)[C@@H]1C[C@H](C)CC[C@H]1C(C)C [WS-5]?
IC50 [1]: 600 µM; IC50 ([1]; Homo sapiens): 500 µM; Relative Expression of mRNA in Adipocytes: 18S (adipocytes): 0.85; Relative Expression of mRNA in Adipocytes: ACADM (adipocytes): 1.45; Relative Expression of mRNA in Adipocytes: CPT1A (adipocytes): 1.5; Relative Expression of mRNA in Adipocytes: FASN (adipocytes): 2.0; Relative Expression of mRNA in Adipocytes: GAPDH (adipocytes): 1; Relative Expression of mRNA in Adipocytes: PPARGC1A (adipocytes): 1.7; Relative Expression of mRNA in Adipocytes: PRDM16 (adipocytes): 1.3; Relative Expression of mRNA in Adipocytes: UCP-1 (adipocytes): 1.5
